Values after ≈ are worked out from the molar mass of the structure shown. Values joined by “and” are separate entries in the source; they are usually repeats but may differ in a detail not shown here. Identical values can stand only once.
Assays:
Test in all cases: ≥ marks a high value that may be exact or a test limit, other limits are often not marked, values filed in µg/mL are converted to µM
[1] = test system: Klebsiella pneumoniae ATCC 10031
[2] = test system: Enterococcus faecalis ATCC 29212
[3] = test system: Staphylococcus aureus ATCC 29213
[4] = test system: Escherichia coli ATCC 12795
[5] = test system: Pseudomonas aeruginosa ATCC 27312
[6] = test system: Candida krusei ATCC 6258
[7] = test system: Mannheimia haemolytica 82-25
[8] = test system: Serratia marcescens ATCC 14756
[9] = test system: Staphylococcus aureus VRSA1
[10] = test system: Cryptococcus neoformans ATCC 208821
[11] = test system: Bacillus megaterium ATCC 13632
[12] = test system: Acinetobacter baumannii ATCC 19606
[13] = test system: Pseudomonas aeruginosa ATCC 15442
[14] = test system: Bacillus subtilis CCT 2576
[15] = test system: Candida albicans ATCC 90028
[16] = test system: Streptococcus pneumoniae ATCC 700677
[17] = test system: Candida tropicalis ATCC 750
[18] = test system: Bacillus subtilis ATCC 6051
[19] = test system: Pseudomonas aeruginosa ATCC 27853
[20] = test system: Staphylococcus aureus ATCC 6538
[21] = test system: Klebsiella pneumoniae ATCC 700603
[22] = test system: Staphylococcus aureus ATCC 43300
[23] = test system: Enterococcus faecium ATCC 35667
[24] = test system: Klebsiella pneumoniae ATCC BAA-1705
[25] = test system: Escherichia coli W3110
[26] = test system: Salmonella enterica subsp. enterica serovar Typhimurium ATCC 14028
[27] = test system: Salmonella enterica subsp. enterica serovar Enteritidis 706 RIVM
[28] = test system: Pseudomonas aeruginosa PAO1
[29] = test system: Escherichia coli ATCC 25922
[30] = test system: Pseudomonas aeruginosa RP73
[31] = test system: Staphylococcus aureus WKZ2
[32] = test system: Escherichia coli ATCC 35218
[33] = test system: Listeria monocytogenes
[34] = test system: Staphylococcus aureus ATCC 6538P
[35] = test system: Escherichia coli MG1655 ΔrecA
[36] = test system: Escherichia coli MG1655
[37] = test system: Klebsiella aerogenes ATCC 13048
[38] = test system: Salmonella typhimurium CMCC 50115
[39] = test system: Escherichia coli K88
[40] = test system: Salmonella enterica ATCC H9812
[41] = test system: Shigella dysenteriae CMCC 51252
[42] = test system: Shigella flexneri CMCC 51572
[43] = test system: Klebsiella pneumoniae CMCC 46117
[44] = test system: Escherichia coli ATCC 25922 ΔsbmA
[45] = test system: Bacillus subtilis ATCC 63501
[46] = test system: Shigella flexneri ATCC 12022
[47] = test system: Staphylococcus aureus ATCC 25923

N[C@@H](CC(=O)O)C(=O)N[C@@H](CC(=O)O)C(=O)N[C@@H](CC(=O)O)C(=O)N[C@@H](CC(=O)O)C(=O)N[C@@H](CC(=O)O)C(=O)N[C@@H](CC(=O)O)C(=O)N[C@@H](CC(=O)O)C(=O)O [DDDDDDD]
MIC [1]: ≥ 800 µM
MIC [2]: 1160 µM (≈ 955 µg/mL)
MIC [3]: 940 µM (≈ 774 µg/mL)
MIC [4]: ≥ 570 µM
MIC [5]: ≥ 1500 µM
MIC [6]: ≥ 3190 µM
MIC [7]: ≥ 80 µM
MIC [8]: ≥ 1500 µM

CC[C@H](C)[C@H](N)C(=O)N[C@@H](CC(N)=O)C(=O)N[C@@H](Cc1c[nH]c2ccccc12)C(=O)N[C@@H](CC(C)C)C(=O)N[C@@H](CCCCN)C(=O)N[C@@H](CC(C)C)C(=O)NCC(=O)N[C@@H](CCCCN)C(=O)N[C@@H](C)C(=O)N[C@H](C(=O)N[C@H](C(=O)N[C@@H](CC(=O)O)C(=O)N[C@@H](C)C(=O)N[C@@H](CC(C)C)C(N)=O)[C@@H](C)CC)[C@@H](C)CC [INWLKLGKAIIDAL]
MIC [9]: 3.61 µM (≈ 5.65 µg/mL)
MIC [10]: 2.55 µM (≈ 4 µg/mL)
MIC [11]: 2.55 µM (≈ 4 µg/mL)
MIC [12]: 5.1 µM (≈ 8 µg/mL)
MIC [3]: 5.1 µM (≈ 8 µg/mL)
MIC [13]: ≥ 164 µM
MIC [14]: ≥ 151 µM
MIC [15]: 7.22 µM (≈ 11.3 µg/mL)
MIC [16]: 5.1 µM (≈ 8 µg/mL)
MIC [17]: 1.28 µM (≈ 2 µg/mL)
MIC [18]: 2.55 µM (≈ 4 µg/mL)
MIC [19]: 115 µM (≈ 181 µg/mL)
MIC [20]: 122 µM (≈ 191 µg/mL)
MIC [21]: 81.6 µM (≈ 128 µg/mL)
MIC [22]: 5.1 µM (≈ 8 µg/mL)
MIC [23]: 3.61 µM (≈ 5.65 µg/mL)

CC[C@H](C)[C@H](N)C(=O)N[C@@H](Cc1c[nH]c2ccccc12)C(=O)N[C@@H](Cc1c[nH]c2ccccc12)C(=O)N[C@@H](C)C(=O)N[C@@H](CCCCN)C(=O)N[C@@H](Cc1c[nH]c2ccccc12)C(=O)NCC(=O)N[C@@H](CC(C)C)C(=O)N[C@@H](CCCCN)C(=O)N[C@@H](CC(C)C)C(=O)N[C@@H](CC(C)C)C(=O)N[C@@H](CC(=O)O)C(=O)N[C@@H](Cc1ccc(O)cc1)C(=O)N[C@@H](CCCN=C(N)N)C(=O)N[C@@H](CCCN=C(N)N)C(=O)N[C@H](C(=O)N[C@@H](Cc1c[nH]c2ccccc12)C(=O)O)[C@@H](C)CC [IWWAKWGLKLLDYRRIW]
MIC [24]: ≥ 128 µM
MIC [25]: 8 µM (≈ 18.4 µg/mL)

CC(C)C[C@H](NC(=O)[C@@H](NC(=O)[C@@H]1CCCN1C(=O)[C@H](C)NC(=O)[C@H](CCCCN)NC(=O)[C@H](Cc1c[nH]c2ccccc12)NC(=O)[C@H](CCC(N)=O)NC(=O)[C@@H]1CCCN1C(=O)[C@H](Cc1ccccc1)NC(=O)[C@H](Cc1ccc(O)cc1)NC(=O)[C@H](CCCCN)NC(=O)[C@H](CCCN=C(N)N)NC(=O)[C@H](C)NC(=O)[C@@H]1CCCN1C(=O)[C@H](CC(N)=O)NC(=O)[C@H](CC(C)C)NC(=O)[C@H](CC(N)=O)NC(=O)[C@H](Cc1cnc[nH]1)NC(=O)[C@H](CCCCN)NC(=O)[C@H](CCCCN)NC(=O)[C@H](CC(C)C)NC(=O)[C@H](Cc1ccccc1)NC(=O)[C@@H]1CCCN1)[C@@H](C)O)C(=O)O [PFLKKHNLNPARKYFPQWKAPTL]
MIC [2]: > 50 µM
MIC [26]: > 50 µM
MIC [27]: ≥ 50 µM
MIC [28]: 25 µM (≈ 69.9 µg/mL)
MIC [29]: > 50 µM
MIC [30]: 12.5 µM (≈ 34.9 µg/mL)
MIC [31]: ≥ 50 µM
MIC [32]: ≥ 50 µM
MIC [33]: ≥ 50 µM
MIC [34]: 3.12 µM (≈ 8.72 µg/mL)

CC(C)C[C@H](NC(=O)CNC(=O)[C@H](C)NC(=O)[C@H](CCCN=C(N)N)NC(=O)[C@H](Cc1cnc[nH]1)NC(=O)[C@@H](NC(=O)[C@@H](N)CCCN=C(N)N)[C@@H](C)O)C(=O)N[C@@H](CCC(N)=O)C(=O)N[C@@H](Cc1ccccc1)C(=O)N1CCC[C@H]1C(=O)N[C@H](C(=O)NCC(=O)N[C@@H](CCCN=C(N)N)C(=O)N[C@H](C(=O)N[C@@H](Cc1cnc[nH]1)C(=O)N[C@@H](CCCN=C(N)N)C(=O)N[C@@H](CC(C)C)C(=O)N[C@@H](CC(C)C)C(=O)N[C@@H](CCCN=C(N)N)C(=O)N[C@@H](CCCCN)C(N)=O)C(C)C)C(C)C [RTHRAGLQFPVGRVHRLLRK]
MIC [35]: 16 µM (≈ 38.4 µg/mL)
MIC [36]: ≥ 32 µM
MIC [37]: ≥ 64 µM

CC[C@H](C)[C@H](NC(=O)[C@@H]1CCCN1C(=O)[C@H](CCCN=C(N)N)NC(=O)[C@@H]1CCCN1C(=O)[C@H](CCCN=C(N)N)NC(=O)[C@@H]1CCCN1C(=O)[C@H](CC(C)C)NC(=O)[C@H](Cc1ccc(O)cc1)NC(=O)[C@@H]1CCCN1C(=O)[C@@H]1CCCN1C(=O)[C@H](CCCCN)NC(=O)[C@H](CC(=O)O)NC(=O)[C@@H](N)C(C)C)C(=O)N[C@@H](CCCN=C(N)N)C(=O)N[C@@H](CCCN=C(N)N)C(=O)N1CCC[C@H]1C(=O)NCC(=O)NCC(=O)N[C@@H](CCCN=C(N)N)C(N)=O [VDKPPYLPRPRPIRRPGGR]
MIC [1]: ≥ 256 µM
MIC [38]: 1 µM and 2 µM
MIC [39]: 2 µM (≈ 4.45 µg/mL)
MIC [2]: > 512 µM
MIC [40]: 2 µM (≈ 4.45 µg/mL)
MIC [41]: 4 µM and 2 µM
MIC [42]: 2 µM (≈ 4.45 µg/mL)
MIC [43]: ≥ 256 µM
MIC [44]: ≥ 256 µM
MIC [45]: ≥ 512 µM
MIC [46]: 1 µM (≈ 2.23 µg/mL)
MIC [47]: > 512 µM
